Measurements from PubChem BioAssay (NCI).
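Exposure lasted 48 hours, with cells grown in 96-well plates and compounds tested at five concentrations. TGI: concentration producing complete growth inhibition.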

Legend:
Assay in all cases: NCI-60 cell line screen, 48 h
[1] = tested on: U251 CNS
[2] = tested on: UACC-62 melanoma
[3] = tested on: SF-268 CNS
[4] = tested on: COLO 205 colon
[5] = tested on: SNB-75 CNS
[6] = tested on: MDA-MB-231 breast
[7] = tested on: SN12C renal
[8] = tested on: M14 melanoma
[9] = tested on: LOX IMVI melanoma
[10] = tested on: UACC-257 melanoma
[11] = tested on: IGROV1 ovarian
[12] = tested on: KM12 colon
[13] = tested on: SR leukemia
[14] = tested on: HCC-2998 colon
[15] = tested on: SK-MEL-5 melanoma
[16] = tested on: CAKI-1 renal
[17] = tested on: OVCAR-3 ovarian
[18] = tested on: NCI/ADR-RES ovarian
[19] = tested on: NCI-H226 lung
[20] = tested on: HOP-62 NSCLC

CCC/C(Cl)=N/OC(=O)Nc1cc(C(F)(F)F)ccc1OC
TGI [1]: 31.6 µM | TGI [2]: 28.8 µM | TGI [3]: 29.8 µM | TGI [4]: 3.45 µM | TGI [5]: 28.5 µM | TGI [6]: 27 µM | TGI [7]: 27.4 µM | TGI [8]: 21.4 µM | TGI [9]: 16.2 µM | TGI [10]: 30.9 µM | TGI [11]: 30.7 µM | TGI [12]: 33.5 µM | TGI [13]: 13.5 µM | TGI [14]: 30.6 µM | TGI [15]: 19.9 µM | TGI [16]: 9.01 µM | TGI [17]: 30.3 µM | TGI [18]: 33.1 µM | TGI [19]: 30.8 µM | TGI [20]: 32.2 µM

Cc1c(/C=N/NC(=S)Nc2ccc(Cl)cc2)c(=O)n(-c2ccccc2)n1C
TGI [1]: 30.7 µM | TGI [2]: > 79 µM | TGI [3]: 39 µM | TGI [4]: > 100 µM | TGI [5]: 35.8 µM | TGI [6]: 1.99 µM | TGI [7]: > 100 µM | TGI [8]: > 100 µM | TGI [9]: > 100 µM | TGI [10]: > 100 µM | TGI [11]: 45.2 µM | TGI [12]: 99.4 µM | TGI [13]: > 100 µM | TGI [14]: > 100 µM | TGI [15]: > 31.6 µM | TGI [16]: > 48.3 µM | TGI [17]: > 65.3 µM | TGI [18]: 48.9 µM | TGI [19]: 53.8 µM | TGI [20]: 27.5 µM

N#CC(C#N)=C/C=C/c1c(Cl)cccc1Cl
TGI [1]: 4.08 µM | TGI [2]: 2.91 µM | TGI [3]: 4.07 µM | TGI [4]: 3.17 µM | TGI [5]: > 10 µM | TGI [6]: 3.52 µM | TGI [7]: 3.9 µM | TGI [8]: 3.06 µM | TGI [9]: 3.36 µM | TGI [10]: 2.99 µM | TGI [11]: 4.27 µM | TGI [12]: 3.02 µM | TGI [13]: > 10 µM | TGI [14]: 3.34 µM | TGI [15]: 3.28 µM | TGI [16]: 4.55 µM | TGI [17]: 5.67 µM | TGI [18]: 4.98 µM | TGI [19]: 7.05 µM | TGI [20]: 8.87 µM

O=C1/C(=C/c2ccc(O)cc2)CCc2ccc([N+](=O)[O-])cc21
TGI [1]: > 100 µM | TGI [2]: > 100 µM | TGI [3]: > 100 µM | TGI [4]: > 100 µM | TGI [5]: > 100 µM | TGI [6]: > 100 µM | TGI [7]: > 100 µM | TGI [8]: > 100 µM | TGI [9]: > 100 µM | TGI [10]: > 100 µM | TGI [11]: > 100 µM | TGI [12]: > 100 µM | TGI [13]: > 100 µM | TGI [14]: > 100 µM | TGI [15]: > 100 µM | TGI [16]: > 100 µM | TGI [17]: > 100 µM | TGI [18]: > 100 µM | TGI [19]: > 92.7 µM | TGI [20]: > 100 µM

N/N=C(\c1nc2ccc([N+](=O)[O-])cc2[nH]c1=O)C(O)c1ccc(Cl)c(Cl)c1 (stereo not given)
TGI [1]: > 100 µM | TGI [2]: > 100 µM | TGI [3]: > 100 µM | TGI [4]: > 100 µM | TGI [5]: > 100 µM | TGI [6]: > 100 µM | TGI [7]: > 100 µM | TGI [8]: > 100 µM | TGI [9]: > 100 µM | TGI [10]: > 100 µM | TGI [11]: > 100 µM | TGI [12]: > 100 µM | TGI [13]: > 100 µM | TGI [14]: > 100 µM | TGI [15]: > 100 µM | TGI [16]: > 100 µM | TGI [17]: > 100 µM | TGI [18]: > 100 µM | TGI [19]: > 100 µM | TGI [20]: > 100 µM

CC(=O)OCC1OC(N2C(c3ccccc3)=CC(c3ccco3)C(C#N)=C2S)C(OC(C)=O)C(OC(C)=O)C1OC(C)=O (stereo not given)
TGI [1]: 8.6 µM | TGI [2]: 65 µM | TGI [3]: > 57.4 µM | TGI [4]: 28.5 µM | TGI [5]: 8.9 µM | TGI [6]: 8.65 µM | TGI [7]: 26.2 µM | TGI [8]: 16.9 µM | TGI [9]: > 46.4 µM | TGI [10]: > 100 µM | TGI [11]: > 67.1 µM | TGI [12]: > 100 µM | TGI [13]: > 37.5 µM | TGI [14]: 48.9 µM | TGI [15]: 17.9 µM | TGI [16]: 34.1 µM | TGI [17]: 18.3 µM | TGI [18]: 39.9 µM | TGI [19]: 24.3 µM | TGI [20]: 19.5 µM

CCOC(=O)c1ccc(C(=O)n2ccnc2)[nH]1
TGI [1]: > 100 µM | TGI [2]: > 100 µM | TGI [3]: > 100 µM | TGI [4]: > 100 µM | TGI [5]: > 100 µM | TGI [6]: > 100 µM | TGI [7]: > 100 µM | TGI [8]: > 100 µM | TGI [9]: > 100 µM | TGI [10]: > 100 µM | TGI [11]: > 100 µM | TGI [12]: > 100 µM | TGI [13]: > 100 µM | TGI [14]: > 100 µM | TGI [15]: > 100 µM | TGI [16]: > 100 µM | TGI [17]: > 100 µM | TGI [18]: > 100 µM | TGI [19]: > 100 µM | TGI [20]: > 100 µM

C/C=C(/C)C(=O)O[C@H]1[C@H]2[C@@H]([C@@H](OC(C)=O)[C@H](C)C(=O)[C@@]34C[C@@H](C)C(=O)[C@]3(/C=C(\C)[C@H]1OC(C)=O)O4)C2(C)C
TGI [1]: > 20 µM | TGI [2]: 6.99 µM | TGI [3]: > 20 µM | TGI [4]: 5.32 µM | TGI [5]: > 20 µM | TGI [6]: 9.32 µM | TGI [7]: 5.33 µM | TGI [8]: 5.22 µM | TGI [9]: 6.27 µM | TGI [10]: 10.9 µM | TGI [11]: 9.96 µM | TGI [12]: 17.8 µM | TGI [13]: 7.34 µM | TGI [14]: 8.53 µM | TGI [15]: 7.75 µM | TGI [16]: 10 µM | TGI [17]: 7.01 µM | TGI [18]: 8.03 µM | TGI [19]: 6.56 µM | TGI [20]: 12 µM

O=C(NCCCNCCN1C(=O)c2cccc3cc([N+](=O)[O-])cc(c23)C1=O)c1cc(-c2ccccc2)nc2ccccc12
TGI [1]: 9.12 µM | TGI [2]: 17.4 µM | TGI [3]: 15.9 µM | TGI [4]: 4.26 µM | TGI [5]: 14.1 µM | TGI [6]: 8.17 µM | TGI [7]: 17.1 µM | TGI [8]: 3.3 µM | TGI [9]: 2.93 µM | TGI [10]: 3.95 µM | TGI [11]: 15.2 µM | TGI [12]: 18.6 µM | TGI [13]: 2.1 µM | TGI [14]: 3.05 µM | TGI [15]: 5.97 µM | TGI [16]: 18.9 µM | TGI [17]: 18.9 µM | TGI [18]: 17.3 µM | TGI [19]: 24.2 µM | TGI [20]: 20.5 µM

Cc1cc2nc(C=C(C(F)(F)F)C(F)(F)F)sc2cc1C
TGI [1]: 4.21 µM | TGI [2]: 4.98 µM | TGI [3]: 11.3 µM | TGI [4]: 13.7 µM | TGI [5]: 10.3 µM | TGI [6]: 23.9 µM | TGI [7]: 1.63 µM | TGI [8]: 3.31 µM | TGI [9]: 4.99 µM | TGI [10]: 13.6 µM | TGI [11]: 7.78 µM | TGI [12]: 4.41 µM | TGI [13]: 13.2 µM | TGI [14]: 8.36 µM | TGI [15]: 8.77 µM | TGI [16]: 8.24 µM | TGI [17]: 5.63 µM | TGI [18]: 14.6 µM | TGI [19]: 6.79 µM | TGI [20]: 7.59 µM
